The source of these data is article PMC13252604, “First Generation Proteolysis Targeting Chimeras (PROTACs) for the Treatment of Progeria” (Advanced Science, 2026).

For the assay, the system named is HGADFN167 Lmna^G608G/G608G fibroblasts. Kind of assay: Oxygen consumption rates (OCR) measurement. The assay is classed as cell-based, human. The following applies: HGADFN167, 5 µM, 20 days. The text has this:
FIGURE 6 (A) Representative cropped immunoblots and progerin quantification in human Lmna^G608G/G608G fibroblasts. MW, molecular weight (in kDa) markers. […] (B) PROTAC 2 increases cell proliferation (upper panels) and decreases the number of misshapen nuclei (lower panels). White arrows highlight selected misshapen nuclei. (C) PROTAC 2 decreases senescence‐associated β‐galactosidase (SA‐βgal) activity, interleukin (IL) 6, p16 and p21 senescent markers. Bar graphs show mean±sem of 2 (SA‐βgal and p21) or 3 (IL‐6 and p16) independent experiments performed in triplicate. (D) PROTAC 2 decreases phosphorylated histone 2AX (pH2AX) and increases trimethylated histone 3 (H3K9Me3) levels. (E) PROTAC 2 increases the oxygen consumption rate (OCR), ATP production and the number of healthy mitochondria in human progeroid cells. Bar graphs show mean±sem of 2 independent experiments performed in duplicate. […] Data were analysed using one‐way ANOVA followed by Dunnett's post–hoc test vs vehicle (panel A) or vs G608G cells (panels B‐E). ^*, p < 0.05; ^**, p < 0.01; ^***, p < 0.001; ^****, p < 0.0001. […]
Mitochondria were evaluated for the integrity of the membrane, matrix and cristae, and were classified as mitochondria with normal morphology (black arrows) or damaged mitochondria (red arrows, with alterations in the membrane, presence of inclusions in the matrix and concentric cristae or “onion-like” mitochondria). […]
ferrocyanide, 0.6 mL 5 M NaCl, 0.2 mL 0.2 M MgCl2, (all from Sigma Aldrich) and 6.2 mL of deionized water in a total volume of 20 mL] in the dark in a humidified incubator at 37 °C for 24 h without CO2 supply. Then, an equal volume of the supernatant of each well was transferred to a new 96-well plate for fluorescence measurement. The resultant production of fluorescein was measured using a FluoStar Optima instrument (BMG Labtech) with an excitation of 485 nm and emission at 535 nm. […]
Total RNA was extracted by RNAeasy Mini Kit (Qiagen) according to the manufacturer instructions and subsequently quantified using the NanoPhotometer N60 (Implen). […]

As for `CC1(C)Oc2cc3oc(=O)ccc3cc2C[C@@H]1OC(=O)CCCCCNc1cccc2c1C(=O)N(C1CCC(=O)NC1=O)C2=O` (stereo partly drawn) [compound 2], the ATP production entry was “enhances”, the basal respiration result is given as “enhances” and the “oxygen consumption rate (OCR)” value is “enhances OCR in human progeroid cells”.
